Laboratory results: US10738028B2, “Spiro three-membered ring, spiro five-membered ring peptide deformylase inhibitor and use thereof in antibacteria and anti-tumor” (priority 2016, dated 2020)
≈ marks a conversion by molar mass, not a printed value. Like-named read-outs stand apart in the source and are kept apart here.

Tests used:
Type in all cases: cell-based
[1] = test system: BEL-7402 liver cancer cell line; experiment: CCK-8 proliferation inhibition; conditions: concentration of 30 μM
Excerpt: (§1) 2. The present invention adopts the CCK-8 method to determine the proliferation inhibition effect of the spiro three-membered ring, spiro five-membered ring peptide deformylase inhibitor as described in Examples 1-80 against colorectal cancer cells, lung cancer cells, gastric cancer cells, liver cancer cells, and the like. […] The compound having the best activity synthesized in Example 64 was further tested for its inhibitory activity against other tumor cells including T cell leukemia, acute myeloid leukemia, cervical cancer, breast cancer, prostate cancer and osteosarcoma, and the like (see Table 7).
(§2) (1) HCT-116 colorectal cancer cell line, A549 lung cancer cell line, MGC-803 gastric cancer cell line, BEL-7402 liver cancer cell line, Jurkat T cell leukemia cell line, HL60 acute myeloid leukemia cell line, Hela cervical cancer cell line, MCF-7 breast cancer cell line, PC3 prostate cancer cell line and SAOS-2 osteosarcoma cell line were made into single cell suspension, 180 μL of which was inoculated into 96-well culture plate, which was cultured overnight in CO2 incubator (37° C., 5% CO2, 95% air).
(§3) (2) Each of the spiro three-membered ring, spiro five membered ring peptide deformylase inhibitors was dissolved in DMSO, and was further formulated into drug solution with required different final concentration using corresponding cell culture medium. The drug solutions were added to the above cells respectively (20 μL/well), with the control group added with 1‰ DMSO, and cultured in a CO2 incubator for 72 hours.
(§4) (3) After incubation for 72 hours, the culture solution was decanted, and 100 μL of 1:10 diluted CCK-8 solution was added.
(§5) Wherein, in step (1), the concentration of the single cell suspension was 2000 cells/well.
(§6) Wherein, in step (2), HCT-116 cells were cultured in McCoy's 5A medium (containing 10% newborn bovine serum, 1% double antibody); A549 and PC3 cells were cultured in F12 medium (containing 10% newborn bovine serum, 1% double antibody); MGC-803, BEL-7402, SAOS-2, Jurkat and HL60 cells were cultured in 1640 medium (containing 10% newborn bovine serum, 1% double antibody); and MCF-7 and Hela cells were cultured in DMEM high glucose medium (containing 10% newborn bovine serum, 1% double antibody).

[2] = test system: MGC-803 gastric cancer cell line; experiment: CCK-8 proliferation inhibition; conditions: Homo sapiens, MGC-803, 72 h, concentration of 30 μM
Excerpt: as §1, §2, §3, §4, §5, §6

[3] = test system: A549 lung cancer cell line; experiment: CCK-8 proliferation inhibition; conditions: Homo sapiens, A549, 72 h, concentration of 30 μM
Excerpt: as §1, §2, §3, §4, §5, §6

[4] = test system: HCT-116 colorectal cancer cell line; experiment: CCK-8 proliferation inhibition; conditions: Homo sapiens, HCT-116, 72 h, concentration of 30 μM, 72 hours, CCK-8
Procedure, shortened: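 Cells seeded at 2000 cells/well, cultured overnight at 37 °C, 5% CO2, then exposed to compound (DMSO; control 1‰ DMSO) for 72 h in McCoy's 5A with 10% newborn bovine serum. Viability read with 1:10 diluted CCK-8.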

[5] = test system: Enterococcus faecium (EFM); experiment: MIC, two-fold agar dilution (CLSI), clinical isolates
Procedure, shortened: (§7)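 CLSI two-fold agar dilution; MIC of test samples read per tested strain.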

[6] = test system: methicillin-resistant Staphylococcus aureus (MRSA); experiment: as above
Procedure, shortened: as §7

[7] = test system: methicillin-sensitive Staphylococcus epidermidis (MSSE); experiment: as above
Procedure, shortened: as §7

[8] = test system: Moraxella catarrhalis (BCA); experiment: as above
Procedure, shortened: as §7

[9] = test system: Enterococcus faecalis (EFA); experiment: as above
Procedure, shortened: as §7

[10] = test system: Escherichia coli (including ESBLs, non-ESBLs); experiment: as above
Procedure, shortened: as §7

[11] = test system: methicillin-resistant Staphylococcus epidermidis (MRSE); experiment: as above
Procedure, shortened: as §7

[12] = test system: Streptococcus pneoumoniae (SPN); experiment: as above
Procedure, shortened: as §7

[13] = test system: methicillin-sensitive Staphylococcus aureus (MSSA); experiment: as above
Procedure, shortened: as §7

For `O=CN(O)C[C@@H](CC1CCCC1)C(=O)N1CC2(CC2)C[C@H]1C(=O)Nc1ccc(N2CCOCC2)cc1` [Example 25, (S)-5-((R)-3-cyclopentyl-2-((N-hydroxyformamido)methyl)propionyl)-N-(4-morpholinophenyl)-5-spiro[2.4]heptane-6-carboxamide], the inhibition at 30 µM ([1]; Homo sapiens, Bel-7402, 72 h) was greater than 50%, the “Inhibition of proliferation, Liver cancer BEL-7402” value ([1]; 72 hours, 30 µM) was 65% and the inhibition at 30 µM [2] was 27%. For the same compound, the inhibition at 30 µM [3] was 30%, the inhibition at 30 µM ([4]; Table 5, read-out: Inhibition of proliferation, Colorectal cancer HCT116) was no less than 30% and the inhibition at 30 µM ([4]; read-out: HCT116 inhibition rate/%) was 35%. For the same compound, the MIC (anti-bacterial activity) ([5]; strain EFM 15-1) was 1 µg/mL (≈ 2.01 µM), the MIC (anti-bacterial activity) ([5]; strain EFM 15-2) was 0.5 µg/mL (≈ 1 µM) and the MIC (anti-bacterial activity) ([5]; strain EFM 15-3) was 0.5 µg/mL (≈ 1 µM). For the same compound, the MIC (anti-bacterial activity) ([5]; strain EFM 15-4) was 0.25 µg/mL (≈ 0.501 µM), the MIC (anti-bacterial activity) ([5]; strain EFM 15-5) was 0.5 µg/mL (≈ 1 µM) and the MIC (anti-bacterial activity) ([5]; strain EFM 15-6) was 1 µg/mL (≈ 2.01 µM). For the same compound, the MIC (anti-bacterial activity) ([6]; strain MRSA 15-1) was 0.25 µg/mL (≈ 0.501 µM), the MIC (anti-bacterial activity) ([6]; strain MRSA 15-2) was 0.25 µg/mL (≈ 0.501 µM) and the MIC (anti-bacterial activity) ([6]; strain MRSA 15-3) was 0.25 µg/mL (≈ 0.501 µM). For the same compound, the MIC (anti-bacterial activity) ([6]; strain MRSA 15-4) was 0.25 µg/mL (≈ 0.501 µM), the MIC (anti-bacterial activity) ([7]; strain MSSE 15-3) was 0.25 µg/mL (≈ 0.501 µM) and the MIC (anti-bacterial activity) ([7]; strain MSSE 15-4) was 0.25 µg/mL (≈ 0.501 µM). The MIC (anti-bacterial activity) ([7]; strain MSSE 15-5) was 0.25 µg/mL (≈ 0.501 µM), the MIC (anti-bacterial activity) ([7]; strain MSSE 15-6) was 0.25 µg/mL (≈ 0.501 µM) and the MIC (anti-bacterial activity) ([8]; strain BCA 14-1) was 0.5 µg/mL (≈ 1 µM). The MIC (anti-bacterial activity) ([8]; strain BCA 14-4) was 0.25 µg/mL (≈ 0.501 µM), the MIC (anti-bacterial activity) ([8]; strain BCA 14-5) was 0.5 µg/mL (≈ 1 µM) and the MIC (anti-bacterial activity) ([8]; strain BCA 14-6) was 1 µg/mL (≈ 2.01 µM). It also gave an MIC (anti-bacterial activity) ([8]; strain BCA 14-7) of 0.25 µg/mL (≈ 0.501 µM), an MIC (anti-bacterial activity) ([8]; strain BCA 14-8) of 0.25 µg/mL (≈ 0.501 µM) and an MIC (anti-bacterial activity) ([8]; strain BCA 14-10) of 0.25 µg/mL (≈ 0.501 µM). It also gave an MIC (anti-bacterial activity) ([9]; strain EFA 15-1) of 2 µg/mL (≈ 4.01 µM), an MIC (anti-bacterial activity) ([9]; strain EFA 15-2) of 2 µg/mL (≈ 4.01 µM) and an MIC (anti-bacterial activity) ([9]; strain EFA 15-3) of 0.5 µg/mL (≈ 1 µM). For the same compound, the MIC (anti-bacterial activity) ([9]; strain EFA 15-4) was 2 µg/mL (≈ 4.01 µM), the MIC (anti-bacterial activity) ([9]; strain EFA 15-5) was 2 µg/mL (≈ 4.01 µM) and the MIC (anti-bacterial activity) ([9]; strain EFA 15-6) was 2 µg/mL (≈ 4.01 µM). For the same compound, the MIC (anti-bacterial activity) ([9]; strain EFA 15-9) was 2 µg/mL (≈ 4.01 µM), the MIC (anti-bacterial activity) ([10]; strain ECO+ 15-1) was 32 µg/mL (≈ 64.2 µM) and the MIC (anti-bacterial activity) ([10]; strain ECO+ 15-2) was greater than 32 µg/mL. It also gave an MIC (anti-bacterial activity) ([10]; strain ECO+ 15-3) greater than 32 µg/mL, an MIC (anti-bacterial activity) ([10]; strain ECO+ 15-4) greater than 32 µg/mL and an MIC (anti-bacterial activity) ([10]; strain ECO− 15-1) greater than 32 µg/mL. It also gave an MIC (anti-bacterial activity) ([10]; strain ECO− 15-2) greater than 32 µg/mL, an MIC (anti-bacterial activity) ([10]; strain ECO− 15-3) greater than 32 µg/mL and an MIC (anti-bacterial activity) ([10]; strain ECO− 15-4) greater than 32 µg/mL. For the same compound, the MIC (anti-bacterial activity) ([11]; strain MRSE 15-1) was 0.06 µg/mL (≈ 0.12 µM), the MIC (anti-bacterial activity) ([11]; strain MRSE 15-2) was 0.25 µg/mL (≈ 0.501 µM) and the MIC (anti-bacterial activity) ([11]; strain MRSE 15-3) was 0.25 µg/mL (≈ 0.501 µM). For the same compound, the MIC (anti-bacterial activity) ([11]; strain MRSE 15-7) was 0.25 µg/mL (≈ 0.501 µM), the MIC (anti-bacterial activity) ([12]; strain SPN 16-2) was 0.5 µg/mL (≈ 1 µM) and the MIC (anti-bacterial activity) ([12]; strain SPN 16-4) was 2 µg/mL (≈ 4.01 µM). The MIC (anti-bacterial activity) ([13]; strain MSSA 15-3) was 0.25 µg/mL (≈ 0.501 µM), the MIC (anti-bacterial activity) ([13]; strain MSSA 15-4) was 0.25 µg/mL (≈ 0.501 µM) and the MIC (anti-bacterial activity) ([13]; strain MSSA 15-5) was 0.25 µg/mL (≈ 0.501 µM). It also gave an MIC (anti-bacterial activity) ([13]; strain MSSA 15-6) of 0.25 µg/mL (≈ 0.501 µM).
